According to patent US12390437B2, “Itaconic acid derivatives and uses thereof intreating an inflammatory disease or a disease associated with an undesirable immune response” (Sitryx Therapeutics Limited, priority 2019, dated 2025):

Tested on: hepatocytes
Test: Hepatocyte stability assay (human)
Format: in vitro ADME
Conditions: 10 μM compound, 0.5×10^6 cells/mL, 60 minutes
Source text: (§1) Defrosted cryo-preserved hepatocytes (viability >70%) are used to determine the metabolic stability of a compound via calculation of intrinsic clearance (Clint; a measure of the removal of a compound from the liver in the absence of blood flow and cell binding). Clearance data are particularly important for in vitro work as they can be used in combination with in vivo data to predict the half-life and oral bioavailability of a drug.
(§2) The metabolic stability in hepatocytes assay involves a time-dependent reaction using both positive and negative controls. The cells must be pre-incubated at 37° C. then spiked with test compound (and positive control); samples taken at pre-determined time intervals are analysed to monitor the change in concentration of the initial drug compound over 60 minutes. A buffer incubation reaction (with no hepatocytes present) acts as a negative control and two cocktail solutions, containing compounds with known high and low clearance values (verapamil/7-hydroxycoumarin and propranolol/diltiazem), act as positive controls. • 1. The assay is run with a cell concentration of 0.5×10^6 cells/mL in Leibovitz buffer. • 2. All compounds and controls are run in duplicate. • 3. Compound concentration is 10 μM. • 4. All compounds and controls are incubated with both cells and buffer to show turnover is due to hepatic metabolism. • 5. All wells on the incubation plate will have 326.7 μL of either cells or buffer added. • 6. Prior to assay, cell and buffer-only incubation plates are preincubated for 10 mins at 37° C. • 7. The assay is initiated by adding compounds, 3.3 μL of 1 mM in 10% DMSO-90% Buffer; final DMSO concentration is 0.1%. • 8. Samples are taken at regular timepoints (0, 5, 10, 20, 40, 60 min) until 60 mins. • 9. Sample volume is 40 μL and it is added to 160 μL of crash solvent (acetonitrile with internal standard) and stored on ice. • 10. At the end of the assay, the crash plates are centrifuged at 3500 rpm for 20 mins at 4° C. • 11. 80 μL of clear supernatant is removed and mixed with 80 μL of deionised water before being analysed by LC-MS/MS.
(§3) Raw LC-MS/MS data are exported to, and analysed in, Microsoft Excel for determination of intrinsic clearance. The percentage remaining of a compound is monitored using the peak area of the initial concentration as 100%. Intrinsic clearance and half-life values are calculated using a graph of the natural log of percentage remaining versus the time of reaction in minutes. Half-life (min) and intrinsic clearance (Clint in μL min^−1 10^−6 cells) values are calculated using the gradient of the graph (the elimination rate constant, k) and Equations 1 and 2.

CIint (μL min^−1 10^−6 cells)	SMILES
9	C=C(CC(=O)OC1CCCCC1)C(=O)OCc1nnn[nH]1 [Example 125, 1-((2H-tetrazol-5-yl)methyl) 4-cyclohexyl 2-methylenesuccinate]

Tested on: not listed separately
Test: Hepatocyte stability assay (human)
Format: in vitro ADME
Conditions: cryopreserved hepatocytes, 10 μM compound, 0.5×10^6 cells/mL, 60 minutes, read-out: T½
Source text: as §1, §2, §3

half-life at 10 μM [h]	SMILES
3.3	C=C(CC(=O)OC1CCCCC1)C(=O)OCc1nnn[nH]1 [Example 125, 1-((2H-tetrazol-5-yl)methyl) 4-cyclohexyl 2-methylenesuccinate]

Tested on: not listed separately
Test: Mouse pharmacokinetic study, oral administration
Format: in vivo
Conditions: male, C57BL/6, mouse, plasma, po, 100 mg/kg, plasma, male C57BL/6 mice, oral gavage 100 mg/kg, 0.083 h; read-out: Parent compound concentrations following oral administration, Time 0.083 h
Outline: (§4)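 Male C57BL/6 mice (6-8 weeks, fed ad libitum) received 10 mg/kg IV by tail vein in 10% DMSO/HP-β-CD vehicle, or 100 mg/kg by oral gavage in DMSO/HPMC/Tween 80. Facial-vein blood was taken at 9 time points (N=3 each) into K2EDTA; plasma concentrations were measured by LC-MS/MS.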

concentration at 0.083 h [ng/mL]	SMILES
9360	C=C(CC(=O)OC1CCCCC1)C(=O)OCc1nnn[nH]1 [Example 125, 1-((2H-tetrazol-5-yl)methyl) 4-cyclohexyl 2-methylenesuccinate]

Same assay, conditions: male, C57BL/6, mouse, plasma, po, 100 mg/kg, plasma, male C57BL/6 mice, oral gavage 100 mg/kg, 0.25 h; read-out: Parent compound concentrations following oral administration, Time 0.25 h

concentration at 0.25 h [ng/mL]	SMILES
4360	C=C(CC(=O)OC1CCCCC1)C(=O)OCc1nnn[nH]1 [Example 125, 1-((2H-tetrazol-5-yl)methyl) 4-cyclohexyl 2-methylenesuccinate]

Same assay, conditions: male, C57BL/6, mouse, plasma, po, 100 mg/kg, plasma, male C57BL/6 mice, oral gavage 100 mg/kg, 0.5 h; read-out: Parent compound concentrations following oral administration, Time 0.5 h

concentration at 0.5 h [ng/mL]	SMILES
2650	C=C(CC(=O)OC1CCCCC1)C(=O)OCc1nnn[nH]1 [Example 125, 1-((2H-tetrazol-5-yl)methyl) 4-cyclohexyl 2-methylenesuccinate]

Same assay, conditions: male, C57BL/6, mouse, plasma, po, 100 mg/kg, plasma, male C57BL/6 mice, oral gavage 100 mg/kg, 1 h; read-out: Parent compound concentrations following oral administration, Time 1 h

concentration at 1 h [ng/mL]	SMILES
1430	C=C(CC(=O)OC1CCCCC1)C(=O)OCc1nnn[nH]1 [Example 125, 1-((2H-tetrazol-5-yl)methyl) 4-cyclohexyl 2-methylenesuccinate]

Same assay, conditions: male, C57BL/6, mouse, plasma, po, 100 mg/kg, plasma, male C57BL/6 mice, oral gavage 100 mg/kg, 2 h; read-out: Parent compound concentrations following oral administration, Time 2 h

concentration at 2 h [ng/mL]	SMILES
785	C=C(CC(=O)OC1CCCCC1)C(=O)OCc1nnn[nH]1 [Example 125, 1-((2H-tetrazol-5-yl)methyl) 4-cyclohexyl 2-methylenesuccinate]

Same assay, conditions: male, C57BL/6, mouse, plasma, po, 100 mg/kg, plasma, male C57BL/6 mice, oral gavage 100 mg/kg, 4 h; read-out: Parent compound concentrations following oral administration, Time 4 h

concentration at 4 h [ng/mL]	SMILES
427	C=C(CC(=O)OC1CCCCC1)C(=O)OCc1nnn[nH]1 [Example 125, 1-((2H-tetrazol-5-yl)methyl) 4-cyclohexyl 2-methylenesuccinate]

Same assay, conditions: male, C57BL/6, mouse, plasma, po, 100 mg/kg, plasma, male C57BL/6 mice, oral gavage 100 mg/kg, 6 h; read-out: Parent compound concentrations following oral administration, Time 6 h

concentration at 6 h [ng/mL]	SMILES
163	C=C(CC(=O)OC1CCCCC1)C(=O)OCc1nnn[nH]1 [Example 125, 1-((2H-tetrazol-5-yl)methyl) 4-cyclohexyl 2-methylenesuccinate]

Same assay, conditions: male, C57BL/6, mouse, plasma, po, 100 mg/kg, plasma, male C57BL/6 mice, oral gavage 100 mg/kg, 8 h; read-out: Parent compound concentrations following oral administration, Time 8 h

concentration at 8 h [ng/mL]	SMILES
15	C=C(CC(=O)OC1CCCCC1)C(=O)OCc1nnn[nH]1 [Example 125, 1-((2H-tetrazol-5-yl)methyl) 4-cyclohexyl 2-methylenesuccinate]

Same assay, conditions: male, C57BL/6, mouse, plasma, po, 100 mg/kg, plasma, male C57BL/6 mice, oral gavage 100 mg/kg, 24 h; read-out: Parent compound concentrations following oral administration, Time 24 h

concentration at 24 h [ng/mL]	SMILES
< 0.8	C=C(CC(=O)OC1CCCCC1)C(=O)OCc1nnn[nH]1 [Example 125, 1-((2H-tetrazol-5-yl)methyl) 4-cyclohexyl 2-methylenesuccinate]

Tested on: not listed separately
Test: Mouse pharmacokinetic study, intravenous dosing
Format: in vivo
Conditions: male, C57BL/6, mouse, iv; plasma, 10 mg/kg i.v., time 0.05 h; read-out: Parent compound concentration following intravenous administration
Outline: as §4

concentration at 0.05 h [ng/mL]	SMILES
11900	C=C(CC(=O)OC1CCCCC1)C(=O)OCc1nnn[nH]1 [Example 125, 1-((2H-tetrazol-5-yl)methyl) 4-cyclohexyl 2-methylenesuccinate]

Same assay, conditions: male, C57BL/6, mouse, iv; plasma, 10 mg/kg i.v., time 0.133 h; read-out: Parent compound concentration following intravenous administration

concentration at 0.133 h [ng/mL]	SMILES
3870	C=C(CC(=O)OC1CCCCC1)C(=O)OCc1nnn[nH]1 [Example 125, 1-((2H-tetrazol-5-yl)methyl) 4-cyclohexyl 2-methylenesuccinate]

Same assay, conditions: male, C57BL/6, mouse, iv; plasma, 10 mg/kg i.v., time 0.25 h; read-out: Parent compound concentration following intravenous administration

concentration at 0.25 h [ng/mL]	SMILES
1070	C=C(CC(=O)OC1CCCCC1)C(=O)OCc1nnn[nH]1 [Example 125, 1-((2H-tetrazol-5-yl)methyl) 4-cyclohexyl 2-methylenesuccinate]

Same assay, conditions: male, C57BL/6, mouse, iv; plasma, 10 mg/kg i.v., time 0.5 h; read-out: Parent compound concentration following intravenous administration

concentration at 0.5 h [ng/mL]	SMILES
346	C=C(CC(=O)OC1CCCCC1)C(=O)OCc1nnn[nH]1 [Example 125, 1-((2H-tetrazol-5-yl)methyl) 4-cyclohexyl 2-methylenesuccinate]

Same assay, conditions: male, C57BL/6, mouse, iv; plasma, 10 mg/kg i.v., time 1 h; read-out: Parent compound concentration following intravenous administration

concentration at 1 h [ng/mL]	SMILES
38	C=C(CC(=O)OC1CCCCC1)C(=O)OCc1nnn[nH]1 [Example 125, 1-((2H-tetrazol-5-yl)methyl) 4-cyclohexyl 2-methylenesuccinate]

Same assay, conditions: male, C57BL/6, mouse, iv; plasma, 10 mg/kg i.v., time 2 h; read-out: Parent compound concentration following intravenous administration

concentration at 2 h [ng/mL]	SMILES
3	C=C(CC(=O)OC1CCCCC1)C(=O)OCc1nnn[nH]1 [Example 125, 1-((2H-tetrazol-5-yl)methyl) 4-cyclohexyl 2-methylenesuccinate]

Same assay, conditions: male, C57BL/6, mouse, iv; plasma, 10 mg/kg i.v., time 4 h; read-out: Parent compound concentration following intravenous administration

concentration at 4 h [ng/mL]	SMILES
< 0.8	C=C(CC(=O)OC1CCCCC1)C(=O)OCc1nnn[nH]1 [Example 125, 1-((2H-tetrazol-5-yl)methyl) 4-cyclohexyl 2-methylenesuccinate]

Same assay, conditions: male, C57BL/6, mouse, iv; plasma, 10 mg/kg i.v., time 6 h; read-out: Parent compound concentration following intravenous administration

concentration at 6 h [ng/mL]	SMILES
< 0.8	C=C(CC(=O)OC1CCCCC1)C(=O)OCc1nnn[nH]1 [Example 125, 1-((2H-tetrazol-5-yl)methyl) 4-cyclohexyl 2-methylenesuccinate]

Same assay, conditions: male, C57BL/6, mouse, iv; plasma, 10 mg/kg i.v., time 8 h; read-out: Parent compound concentration following intravenous administration

concentration at 8 h [ng/mL]	SMILES
< 0.8	C=C(CC(=O)OC1CCCCC1)C(=O)OCc1nnn[nH]1 [Example 125, 1-((2H-tetrazol-5-yl)methyl) 4-cyclohexyl 2-methylenesuccinate]
